The subject of test [1] is Human Beta Defensin (HBD) 2. Nature of the test: HBD2 expression in normal human keratinocytes (NHEK). To be noted: Example 2; TLR ligand alone, without Pimecrolimus. Further details: unit not given here. Format: cell-based. As to the method:
(§1) To assess the effect of pimecrolimus on the innate immune response of the epidermis, cultures of normal human keratinocytes (NHEK) are stimulated with combinations of a concentration of 10 nM pimecrolimus, 1 μg/ml TLR 2/CD14 ligand—peptidoglycan (PGN), 10 μg/ml lipoteichoic acid (LTA), 2 0.1 μg/ml TLR 2/6 ligand—Malp-, and/or 0.1 μg/ml TLR 4/CD14 ligand—lipopolysaccharide (LPS). Expression of cathelicidin mRNA (Table 3) and protein as well as Human Beta Defensin (HBD) 2 (Table 4) and HBD3 (Table 5) expression in normal human keratinocytes is measured.

Test [2] has as its system cathelicidin. Briefly: Cathelicidin mRNA expression in normal human keratinocytes (NHEK). The test is classed as cell-based. Also on record: Cathelicidin mRNA expression (Mean) / Cathelicidin mRNA expression (means): unit not given here. To be noted: for Cathelicidin mRNA expression (means): 1 uM tacrolimus, 1 ug/ml CsA, 25ng/ml rapamycin; for Cathelicidin mRNA expression (Means of N = 3): Example 6, 10 nM Pimecrolimus, 1 nM 1,25D3. As for the experimental part:
as §1
(§2) To assess the effect of pimecrolimus on the innate immune response of the epidermis, cultures of normal human keratinocytes (NHEK) are stimulated with a concentration of 10 nM pimecrolimus,1 nM 1.25 D3, 0.1 μg/ml TLR2/6 ligand Malp-2 or their combination. Expression of cathelicidin, CD14 and TLR2 mRNA normal human keratinocytes is measured and evaluated accordingly to the procedures as detailed in Example 2 above.
To assess the effect of pimecrolimus on the innate immune response of the epidermis, cultures of normal human keratinocytes (NHEK) are stimulated with a concentration of 10 nM pimecrolimus, 1 uM tacrolimus, 1 ug/ml CsA, 25ng/ml rapamycin, or a combination of pimecrolimus and rapamycin, each of these with or without 0.1 μg/ml TLR2/6 ligand Malp-2. Cathelicidin mRNA expression is evaluated.
(§3) To assess the effect of time dependent effects of pimecrolimus on the innate immune response of the epidermis, cultures of normal human keratinocytes (NHEK) are stimulated with 10 nM Pimecrolimus and low dose calciferol (1,25D3) 1 nM for different time points. mRNA expression of cathelicidin, CD14 and TLR2 is analyzed by qPCR.
To assess the effect of varying levels of pimecrolimus on the innate immune response of the epidermis, cultures of normal human keratinocytes (NHEK) are stimulated with 0 nM, 5 nM, 10 nM, 20 nM, 30 nM, […], […] and 60 nM concentrations of pimecrolimus. Expression of cathelicidin mRNA expression is measured and evaluated accordingly to the procedures as detailed in Example 2 above.
(§4) To assess the effect of calciferol on varying levels of pimecrolimus on the innate immune response of the epidermis, cultures of normal human keratinocytes (NHEK) are stimulated with 0.01 nM, 0.1 nM, 1 nM and 10 nM concentrations of pimecrolimus with or without 1 nM concentrations of calciferol for 24 hours. Expression of cathelicidin mRNA and gene expression of TLR2 is measured and evaluated accordingly to the procedures as detailed in Example 2 above.

In test [3] the test system is HBD3. Briefly: HBD3 expression in normal human keratinocytes (NHEK). Also on record: unit not given here. The test is classed as cell-based. To be noted: Example 2; TLR ligand alone, without Pimecrolimus. As to the method: as §1
For test [4], the system named is TLR2. Nature of the test: TLR2 gene expression by qPCR in NHEK. Format: cell-based, human. To be noted: for TLR2 mRNA expression (Mean): 10 nM pimecrolimus; for TLR2 mRNA expression (Means of N = 3): Example 6, 10 nM Pimecrolimus, 1 nM 1,25D3. As for the experimental part:
(§5) To assess the effect of pimecrolimus on the innate immune response of the epidermis, cultures of normal human keratinocytes (NHEK) are stimulated with a combination of a concentration of 10 nM pimecrolimus and of 1 nM 1.25D3. Gene expression of TLR1, TLR2, TLR4, TLR6 and CD14 are evaluated by qPCR. For CD14 protein expression, a Western Blot is performed and bands are quantified by densitometry using lmagej. Vehicle treated keratinocytes serve as controls. Cathelicidin protein expression is evaluated by immunofluorescence staining.
as §2, §3, §4
For orientation: Quantitative PCR measures a nucleic acid by following its amplification.

Test [5] concerns TLR1. Nature of the test: TLR1 gene expression by qPCR in NHEK. The test is classed as cell-based, human. The settings on record: Example 3; 10 nM pimecrolimus, 1 nM 1.25D3. As to the method: as §5
Test [6] deals with CD14. Briefly: CD14 gene expression by qPCR in NHEK. To be noted: for CD14 mRNA expression (Mean): 10 nM pimecrolimus; for CD14 mRNA expression (Means of N = 3): Example 6, 10 nM Pimecrolimus, 1 nM 1,25D3. The test is classed as cell-based, human. As to the method:
as §5, §2, §3

Test [7] relates to TLR6. Nature of the test: TLR6 gene expression by qPCR in NHEK. The test is classed as cell-based, human. The settings on record: Example 3; 10 nM pimecrolimus, 1 nM 1.25D3. As to the method: as §5
The test system of test [8] is Staphylococcus aureus ΔmprF. Briefly: Growth of S. aureus ΔmprF (OD600) mixed with lysates of stimulated normal human keratinocytes. The settings on record: S. aureus + lysates of NHEK stimulated with 10 nM pimecrolimus, 1 nM 1.25D3 or combination, 37° C. Format: cell-based. As to the method:
To assess the effect of pimecrolimus on the innate immune response of the epidermis against bacteria, cultures of normal human keratinocytes (NHEK) are stimulated with a concentration of 10 nM pimecrolimus, 1 nM 1.25D3 (active 1.25 D-hydroxy calciferol) or their combination. Cells are lysed via sonication 20 minutes in an ice bath, after which cell lysates were mixed with Staphylococcus aureus ΔmprF cultures and incubated at 37° C. Bacterial growth over time is monitored by OD600 (Table 1). To determine if Pimecrolimus alone was able to kill Staphylococcus aureus ΔmprF, Pimecrolimus in a concentration of 10 nM is co-incubated with Staphylococcus aureus ΔmprF cultures and incubated at 37° C. (Table 2). Bacterial growth is monitored by OD600 (*: p<0.05; **: p<0.01; Student's t-test).

The mark [9] stands for this setting: Example 2, TLR ligand alone, without Pimecrolimus (1 μg/ml PGN, 10 μg/ml LTA, 0.1 μg/ml Malp-2, 0.1 μg/ml LPS).
Where [10] appears, read: Example 5, Experiment 1, with 0.1 μg/ml Malp-2, 10 nM pimecrolimus.
Setting [11] is: Example 5, Experiment 1, without Malp-2, 10 nM pimecrolimus.
[12] abbreviates: Example 5, Experiment 2, with 0.1 μg/ml Malp-2, 10 nM pimecrolimus.
[13] abbreviates: Example 5, Experiment 2, without Malp-2, 10 nM pimecrolimus.
[14] abbreviates: Example 4, 1 nM 1.25 D3, 0.1 μg/ml Malp-2 or combination.

Results on seven compounds are retold here after US20090088373A1, “USE OF COMPOSITIONS TO ENHANCE INNATE IMMUNE RESPONSE” (priority 2007, published 2009).

Take lipoteichoic acid [LTA]: the “HBD2 expression (Mean)” value in test [1] was 4.43. Also, the “Cathelicidin mRNA expression (Mean)” value in test [2] (setting [9]) is listed as 3.82. The “HBD3 expression (Mean)” value in test [3] is on record as 2.46.

As to `C=CC[C@@H]1/C=C(\C)C[C@H](C)C[C@H](OC)[C@H]2O[C@@](O)(C(=O)C(=O)N3CCCC[C@H]3C(=O)O[C@H](/C(C)=C/[C@@H]3CC[C@@H](O)[C@H](OC)C3)[C@H](C)[C@@H](O)CC1=O)[C@H](C)C[C@@H]2OC` [Tacrolimus, tacrolimus], the “Cathelicidin mRNA expression (means)” value in test [2] (setting [10]) came to 5.47; in test [2] (setting [11]), 0.67; in test [2] (setting [12]), 0.77; in test [2] (setting [13]), 3.34.

With lipopolysaccharide [LPS], the “HBD2 expression (Mean)” value in test [1] is recorded as 5.68. For the same compound, the “Cathelicidin mRNA expression (Mean)” value in test [2] (setting [9]) came to 0.65. Moreover, the “HBD3 expression (Mean)” value in test [3] is 1.39.

In the case of peptidoglycan [PGN], in test [1], the “HBD2 expression (Mean)” value is 3.26. For the same compound, the “Cathelicidin mRNA expression (Mean)” value in test [2] (setting [9]) is listed as 1.18. Also, in test [3], the “HBD3 expression (Mean)” value was determined as 0.61.

With `CO[C@H]1C[C@@H]2CC[C@@H](C)[C@@](O)(O2)C(=O)C(=O)N2CCCC[C@H]2C(=O)O[C@H]([C@H](C)C[C@@H]2CC[C@@H](O)[C@H](OC)C2)CC(=O)[C@H](C)/C=C(\C)[C@@H](O)[C@@H](OC)C(=O)[C@H](C)C[C@H](C)/C=C/C=C/C=C/1C` [Rapamycin, rapamycin], the “Cathelicidin mRNA expression (means)” value in test [2] (setting [10]) turned out to be 4.03; in test [2] (setting [11]) it was 5.13; in test [2] (setting [12]), 12.38; in test [2] (setting [13]), 5.85.

In the case of `C=C1/C(=C\C=C2/CCC[C@]3(C)[C@@H]([C@H](C)CCCC(C)(C)O)CC[C@@H]23)C[C@@H](O)C[C@@H]1O` [1.25D3, 1.25 D-hydroxy calciferol], the “TLR2 mRNA expression (Mean)” value in test [4] (Example 3, 1 nM 1.25D3) was determined as 0.66; in test [4] (setting [14]), 0.10. Further, the “TLR2 mRNA expression (Means of N = 3)” value in test [4] (0 h) worked out at 1.00; in test [4] (8 h) it was 1.32; in test [4] (24 h), 1.51; in test [4] (48 h), 1.55. Further, the “TLR1 mRNA expression (Mean)” value in test [5] is 1.93. The “CD14 mRNA expression (Mean)” value in test [6] (Example 3, 1 nM 1.25D3) came to 3.01; in test [6] (setting [14]) it was 3.01. Also, the “CD14 mRNA expression (Means of N = 3)” value in test [6] (0 h) is 0.71; in test [6] (8 h) it was 38.35; in test [6] (24 h), 12.26; in test [6] (48 h) it was 0.93. Besides, the “TLR6 mRNA expression (Mean)” value in test [7] came out at 1.01. Further, the “Bacterial growth OD600 (Mean)” value is listed as 0.2203 in test [8] (0 h); 0.2677 in test [8] (2 h); 0.301 in test [8] (4 h); 0.3963 in test [8] (5 h); 0.513 in test [8] (6 h); 0.6203 in test [8] (8 h). Also, the “Cathelicidin mRNA expression (Mean)” value in test [2] (Example 4, 10 nM pimecrolimus, 1 nM 1.25 D3, 0.1 μg/ml Malp-2 or combination) is on record as 2.76. Further, the “Cathelicidin mRNA expression (Means of N = 3)” value turned out to be 1.00 in test [2] (0 h), 35.04 in test [2] (8 h), 134.03 in test [2] (24 h) and 92.37 in test [2] (48 h).

Regarding Malp-2, the “HBD2 expression (Mean)” value in test [1] is 119.16. The “Cathelicidin mRNA expression (Mean)” value in test [2] (setting [9]) came out at 2.29. Also, the entries for the “Cathelicidin mRNA expression (means)” value in test [2] (setting [10]) and in test [2] (setting [12]) were 1.53 and 3.19, respectively. Moreover, in test [3], the “HBD3 expression (Mean)” value was 3.51.
